This passage reports GI50 and TGI results from PubChem BioAssay (NCI).

The structures appear in SMILES notation. “And” between values parts separate entries of the source, which are not always exact repeats. Equal values may be shown once.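 Cultured in 96-well plates, cells were exposed to test compound for 48 hours across five concentrations. At the GI50, growth is halved. TGI: concentration producing complete growth inhibition.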

Common to all, as to assay: NCI-60 cell line screen, 48 h
Experiment [1] has as its system A498 renal.
Experiment [2] deals with KM12 colon.
Experiment [3] concerns LOX IMVI melanoma.
The test system of experiment [4] is MOLT-4 leukemia.
The test system of experiment [5] is NCI-H226 lung.
Experiment [6] relates to SK-MEL-28 melanoma.
In experiment [7] the test system is SNB-75 CNS.
The subject of experiment [8] is SW-620 colon.
The test system of experiment [9] is T-47D breast.
Experiment [10] deals with UACC-257 melanoma.

Consider `Clc1nc(Cl)c2ncn(Cc3cccc(Cn4cnc5c(Cl)nc(Cl)nc54)c3)c2n1`, for which the GI50 in experiment [1] is 4.59 µM; in experiment [2] it was 2.87 µM; in experiment [3] it was 2.23 µM; in [4] it was 3.48 µM; in experiment [5] it was 4.76 µM; in experiment [6] it was 4.25 µM. Besides, the GI50 in experiment [7] is 5.58 µM; in [8], 1.82 µM; in [9], 3.01 µM; in experiment [10], 4.78 µM. The TGI in [1] stood at 17.2 µM; in experiment [2] it was 8.95 µM; in experiment [3] it was 5.57 µM; in experiment [4], 13.7 µM; in experiment [5] it was 26.8 µM; in experiment [6], 22.1 µM. The TGI in [7] is 22.6 µM; in [8] it was 3.34 µM; in [9], 8.43 µM; in experiment [10] it was 17.2 µM.

Take `FC(F)(F)c1nc2nc(Cl)c(Cl)nc2n1CCCN1CCOCC1`: the TGI in [1] was more than 100 µM; in experiment [2], more than 100 µM; in [3], more than 100 µM; in experiment [4], 48.6 µM; in experiment [5] it was more than 100 µM; in experiment [6] it was more than 100 µM. The TGI in [7] is more than 100 µM; in [8] it was more than 100 µM; in experiment [9], more than 100 µM; in [10], 64 µM.

Take `Cc1nc(SCC(=O)Nc2nc(-c3ccc(Cl)cc3)cs2)n(Nc2ccccc2)c1C`: the GI50 in experiment [1] was 2.24 µM; in [2], 2.95 µM; in experiment [3], 1.78 µM; in experiment [4], 2.51 µM; in experiment [5], 3.37 µM; in experiment [6], 10.1 µM. Besides, the GI50 in experiment [7] is 3.48 µM; in [8], 5.5 µM; in experiment [9], 1.4 µM; in experiment [10] it was 3.07 µM. Moreover, the TGI was found to be 10.5 µM in [1]; 14 µM in experiment [2]; 3.72 µM in experiment [3]; 9.94 µM in [4]; 18.8 µM in experiment [5]; 24.6 µM in experiment [6]. The TGI was 16.2 µM in experiment [7], 22.9 µM in experiment [8], 5.24 µM in [9] and 17 µM in experiment [10].

With `CC(=O)OCC1OC(n2c(-c3ccc(Cl)cc3)ccc(C#N)c2=S)C(OC(C)=O)C(OC(C)=O)C1OC(C)=O` (stereo unspecified), the GI50 in experiment [1] is 24.9 µM and 73.8 µM; in experiment [7] it was 5.05 µM and 26.9 µM. In addition, the TGI in [1] was 56.1 µM and > 100 µM; in experiment [2], more than 100 µM; in experiment [3], more than 100 µM; in [4], more than 100 µM; in experiment [5], more than 100 µM; in [6] it was more than 100 µM. The TGI in experiment [7] was 14 µM and 82.9 µM; in [8], more than 100 µM; in experiment [9], more than 100 µM; in experiment [10], more than 100 µM.

As to `Nc1ccc(C2=NN(c3ccccc3)C(c3ccc(Cl)cc3)C2)cc1` (stereo unspecified), the GI50 in [1] was 1.9 µM; in experiment [2] it was 1.68 µM; in experiment [3], 1.66 µM; in [4], 2.23 µM; in experiment [5], 2.13 µM; in experiment [6], 2.07 µM. The GI50 was 3.76 µM in [7], 1.67 µM in experiment [8], 2.06 µM in experiment [9] and 3.13 µM in experiment [10]. For the same compound, the TGI in [1] was found to be 13 µM; in [2] it was 3.11 µM; in [3], 3.05 µM; in [4], 6.61 µM; in experiment [5], 6.38 µM; in experiment [6] it was 4.68 µM. In addition, the TGI in [7] was found to be 16.2 µM; in [8] it was 3.35 µM; in [9], 4.48 µM; in [10], 11.2 µM.

Regarding `CC(C)(C)C(=O)c1c(C(F)(F)F)n([O-])c2ccccc2[n+]1=O`, the GI50 in experiment [1] was 0.565 µM; in experiment [2] it was 0.905 µM; in experiment [3], 0.396 µM; in experiment [4], 0.157 µM; in experiment [5], 0.84 µM; in [6] it was 1.13 µM. The GI50 was 0.46 µM in experiment [7], 0.467 µM in experiment [8], 0.597 µM in experiment [9] and 1.46 µM in experiment [10]. In addition, the TGI in experiment [1] amounted to 1.75 µM; in [2], 2.4 µM; in experiment [3] it was 1.7 µM; in [4], 0.853 µM; in [5], 2.48 µM; in experiment [6] it was 6.12 µM. The TGI in [7] came to 2.05 µM; in [8], 2 µM; in [9] it was 1.78 µM; in experiment [10], 5.57 µM.

`CNC(=O)c1ccc(N2CCN(Cc3ccc4nc(C)c(=O)[nH]c4c3F)CC2)c(F)n1`: the GI50 was more than 100 µM in experiment [1]; more than 100 µM in experiment [2]; more than 100 µM in experiment [3]; more than 100 µM in experiment [4]; 44.9 µM in experiment [5]; more than 100 µM in experiment [6]. Further, the GI50 in [7] is 16.4 µM; in experiment [8], more than 100 µM; in experiment [9], 53.5 µM; in experiment [10], more than 100 µM. Further, the TGI in experiment [1], in [2], in [3], in experiment [4], in [5] and in [6] was more than 100 µM throughout. Besides, the TGI in [7] was 63.8 µM; in experiment [8] it was more than 100 µM; in experiment [9], more than 100 µM; in [10] it was more than 100 µM.

Turning to `COc1cc(OC)cc(N(CCNC(C)C)c2ccc3ncc(-c4cnn(C)c4)nc3c2)c1`, the TGI in experiment [1] turned out to be 3.5 µM; in experiment [2], 21.8 µM; in [3] it was 11.8 µM; in experiment [4], 12 µM; in experiment [5] it was 23 µM; in experiment [6], 24.3 µM. Moreover, the TGI in experiment [7] was determined as 4.2 µM; in experiment [8] it was 20.4 µM; in [9], 30.3 µM; in [10], 23.4 µM. The GI50 in experiment [2] is 7.53 µM; in experiment [3] it was 2.71 µM; in experiment [4] it was 2.99 µM; in experiment [5] it was 4.53 µM; in experiment [6], 10.9 µM; in experiment [7], 0.523 µM. Also, the values for the GI50 in experiment [8], in [9] and in experiment [10] were 6.38 µM, 12.7 µM and 9.49 µM, respectively.
